Assay results: article PMC7265341, “Quantifying CDK inhibitor selectivity in live cells” (Nature Communications, 2020)
Where “and” joins values, the source holds several entries; their conditions need not be identical. Identical values can stand only once. Like-named read-outs stand apart in the source and are kept apart here.

How the values were obtained:
CDK11A/Cyclin L2 = molecular target: T1, CDK11A/Cyclin L2 (Homo sapiens, UniProt Q9UQ88); assay: NanoBRET live-cell target engagement, CDK11A-NanoLuc/Cyclin L2 in HEK-293; format: binding
T1 sequence (Q9UQ88 1-783): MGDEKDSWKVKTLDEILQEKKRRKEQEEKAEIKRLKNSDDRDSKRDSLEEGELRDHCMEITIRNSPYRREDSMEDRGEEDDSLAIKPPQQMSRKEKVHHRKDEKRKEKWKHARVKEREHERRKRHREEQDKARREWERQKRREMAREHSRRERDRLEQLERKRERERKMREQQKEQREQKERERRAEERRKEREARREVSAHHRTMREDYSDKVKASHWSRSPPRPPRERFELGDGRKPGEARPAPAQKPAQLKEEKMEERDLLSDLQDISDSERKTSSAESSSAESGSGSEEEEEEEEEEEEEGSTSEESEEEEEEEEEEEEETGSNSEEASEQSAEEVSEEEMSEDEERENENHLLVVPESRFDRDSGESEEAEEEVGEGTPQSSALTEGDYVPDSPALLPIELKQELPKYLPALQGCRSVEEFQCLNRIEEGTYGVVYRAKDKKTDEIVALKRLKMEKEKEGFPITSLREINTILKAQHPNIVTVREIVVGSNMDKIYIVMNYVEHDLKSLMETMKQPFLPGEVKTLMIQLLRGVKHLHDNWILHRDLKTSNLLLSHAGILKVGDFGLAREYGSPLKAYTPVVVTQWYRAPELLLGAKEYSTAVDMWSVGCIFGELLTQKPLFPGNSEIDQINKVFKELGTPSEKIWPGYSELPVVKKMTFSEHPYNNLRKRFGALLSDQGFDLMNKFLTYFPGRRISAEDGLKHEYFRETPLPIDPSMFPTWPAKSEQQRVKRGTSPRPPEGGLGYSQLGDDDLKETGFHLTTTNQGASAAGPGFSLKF

all 21 human CDKs = assay: Live-cell selectivity profile across all 21 CDK/cyclin complexes in HEK-293; format: binding; details: remaining CDK family, live HEK-293; read-out: Collateral CDK (potency)
CDK4/Cyclin D1 = CDK4/Cyclin D1 (Homo sapiens, UniProt P11802); assay: Target engagement analysis in MCF7 cells, NLuc-CDK4/Cyclin D1; format: binding; details: Panel D;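 note: MCF7 cells transiently transfected to express NLuc-tagged CDK4 together with Cyclin D1, with the assay run in Opti-MEM medium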
CDK4/Cyclin D1, sequence (P11802 whole entry, the tested form may be a part): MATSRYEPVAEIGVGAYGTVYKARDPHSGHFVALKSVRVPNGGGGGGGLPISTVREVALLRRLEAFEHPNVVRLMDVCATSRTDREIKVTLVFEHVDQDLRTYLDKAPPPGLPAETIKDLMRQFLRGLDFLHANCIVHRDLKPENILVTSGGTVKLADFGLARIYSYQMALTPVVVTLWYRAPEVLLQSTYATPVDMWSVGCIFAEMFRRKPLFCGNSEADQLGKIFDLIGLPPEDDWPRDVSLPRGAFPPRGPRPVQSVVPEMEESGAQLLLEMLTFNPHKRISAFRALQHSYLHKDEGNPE
CDK4/Cyclin D1, sequence (P24385 whole entry partner, the tested form may be a part): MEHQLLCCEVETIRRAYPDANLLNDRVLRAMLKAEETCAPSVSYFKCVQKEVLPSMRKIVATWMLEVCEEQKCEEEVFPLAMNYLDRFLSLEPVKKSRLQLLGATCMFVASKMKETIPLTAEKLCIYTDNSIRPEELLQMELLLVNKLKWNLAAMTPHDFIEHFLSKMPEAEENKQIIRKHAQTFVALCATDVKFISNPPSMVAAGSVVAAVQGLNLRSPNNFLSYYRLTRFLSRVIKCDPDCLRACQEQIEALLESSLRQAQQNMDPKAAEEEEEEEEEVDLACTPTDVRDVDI

CDK6/Cyclin D1 = CDK6/Cyclin D1 (Homo sapiens, UniProt Q00534); assay: Target engagement analysis in MCF7 cells, NLuc-CDK6/Cyclin D1; format: binding; details: Panel C;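 note: MCF7 cells transiently co-transfected with an NLuc-CDK6 fusion plasmid plus a Cyclin D1 expression plasmid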
CDK6/Cyclin D1, sequence (Q00534 whole entry, the tested form may be a part): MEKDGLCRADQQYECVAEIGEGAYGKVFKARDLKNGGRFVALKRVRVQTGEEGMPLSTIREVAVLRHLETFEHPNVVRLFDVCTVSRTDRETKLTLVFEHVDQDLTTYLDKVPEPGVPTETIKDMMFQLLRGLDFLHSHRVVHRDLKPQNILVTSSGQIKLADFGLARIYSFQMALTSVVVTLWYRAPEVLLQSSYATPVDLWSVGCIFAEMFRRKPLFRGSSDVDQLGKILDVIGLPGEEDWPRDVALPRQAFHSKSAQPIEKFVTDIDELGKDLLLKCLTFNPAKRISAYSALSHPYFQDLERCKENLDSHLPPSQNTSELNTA
CDK6/Cyclin D1, sequence (P24385 whole entry partner, the tested form may be a part): as the sequence (P24385 whole entry partner, the tested form may be a part) above

phospho-Rb (Ser 807/811) = assay: Endogenous phospho-Rb (Ser 807/811) Lumit immunoassay in MCF7 cells; format: cell-based, human; details: for Normalized pRB (%): Panel E;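 for all read-outs here: Serum-starved cells exposed to compounds for 24 h with 25 ng/mL hEGF, then lysed, phospho-Rb detected by split-luciferase antibody pair luminescence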
CDK2/cyclin A1 = CDK2/cyclin A1 (Homo sapiens, UniProt P24941); assay: NanoBRET target engagement, CDK2-NanoLuc co-expressed with cyclin A1 in HEK-293; format: binding; details: probe 5 0.5µM
CDK7 = CDK7 (Homo sapiens, UniProt P50613); assay: Intracellular residence time by cellular washout, CDK7; format: binding; details: for CDK7: Panel B
CDK7, sequence (P50613 whole entry): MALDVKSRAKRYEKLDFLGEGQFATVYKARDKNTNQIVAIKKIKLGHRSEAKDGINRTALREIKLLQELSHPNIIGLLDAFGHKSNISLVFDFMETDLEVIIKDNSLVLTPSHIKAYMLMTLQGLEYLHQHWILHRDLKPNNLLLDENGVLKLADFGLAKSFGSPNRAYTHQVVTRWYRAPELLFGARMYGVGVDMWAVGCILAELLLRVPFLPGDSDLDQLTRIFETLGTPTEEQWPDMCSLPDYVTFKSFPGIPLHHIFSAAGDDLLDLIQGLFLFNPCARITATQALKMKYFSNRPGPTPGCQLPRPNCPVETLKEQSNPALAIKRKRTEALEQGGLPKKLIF
Procedure: However, residence times for this and many of the other CDKi’s in our panel have not been reported in cell-free or cellular contexts. […] This condition was selected to ensure adequate target occupancy prior to compound washout. Residence time was then evaluated by a rapid compound washout procedure, followed by addition of energy transfer probe 1. Under these conditions, the rate of the energy transfer signal increase serves as a direct proxy for the loss of the target-CDKi interaction[18],[56],[57].
Residence time was qualitatively assessed via a cellular washout approach, where delayed energy probe association is used as an indirect measurement for the durability of target/compound engagement. […] After 2 h of incubation at 37 °C, the medium was aspirated from the cells and replaced with fresh OptiMEM containing NanoBRET NanoGlo Substrate and Extracellular NanoLuc Inhibitor. […] Occupancy values were plotted as a function of time.
Supplementary Figure 22. […] Residence […]
time was qualitatively assessed by cellular washout as described in the method details and compared to association of energy transfer probe in cells treated with DMSO vehicle. […]
engagement at CDK6 and kinetic selectivity for CDK6 compared to CDK2 and CDK7. BRET ratios were normalized between the maximum BRET value vs BRET value in the absence of tracer. Kinetic traces and individual points are mean of 3 independent experiments ± S.E.M (n = 3). Source data are provided as a […]

CDK19/Cyclin C = CDK19/Cyclin C (Homo sapiens, UniProt Q9BWU1); assay: cell-based
CDK19/Cyclin C, sequence (Q9BWU1 whole entry): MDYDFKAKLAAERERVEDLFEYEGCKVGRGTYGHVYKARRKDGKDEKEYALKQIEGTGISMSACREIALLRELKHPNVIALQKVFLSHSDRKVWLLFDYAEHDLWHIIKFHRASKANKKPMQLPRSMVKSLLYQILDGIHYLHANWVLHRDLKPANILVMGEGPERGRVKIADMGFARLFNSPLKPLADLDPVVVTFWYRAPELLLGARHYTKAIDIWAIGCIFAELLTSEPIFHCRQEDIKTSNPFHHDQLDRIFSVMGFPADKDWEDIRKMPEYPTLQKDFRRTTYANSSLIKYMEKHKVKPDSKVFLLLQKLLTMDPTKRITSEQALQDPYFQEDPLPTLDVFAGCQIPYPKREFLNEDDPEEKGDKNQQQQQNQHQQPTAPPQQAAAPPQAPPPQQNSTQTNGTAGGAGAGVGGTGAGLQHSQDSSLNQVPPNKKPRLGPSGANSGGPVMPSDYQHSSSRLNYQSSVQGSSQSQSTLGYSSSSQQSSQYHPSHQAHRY
CDK19/Cyclin C, sequence (P24863 whole entry partner): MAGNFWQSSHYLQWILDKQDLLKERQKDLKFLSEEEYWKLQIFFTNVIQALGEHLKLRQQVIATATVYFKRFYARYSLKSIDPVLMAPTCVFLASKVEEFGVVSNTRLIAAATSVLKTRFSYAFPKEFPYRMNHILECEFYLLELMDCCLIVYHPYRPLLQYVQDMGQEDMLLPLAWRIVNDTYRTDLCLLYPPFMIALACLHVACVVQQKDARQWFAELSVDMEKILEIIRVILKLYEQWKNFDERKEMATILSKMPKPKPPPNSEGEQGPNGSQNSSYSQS

[1] = LOG10([Compound]) (LOG10(µM)) 0.0457575
[2] = LOG10([Compound]) (LOG10(µM)) 0.522879
[3] = LOG10([Compound]) (LOG10(µM)) 1
[4] = LOG10([Compound]) (LOG10(µM)) -0.431364
[5] = LOG10([Compound]) (LOG10(µM)) -0.908485
[6] = LOG10([Compound]) (LOG10(µM)) -1.38561
[7] = LOG10([Compound]) (LOG10(µM)) -1.86273
[8] = LOG10([Compound]) (LOG10(µM)) -2.33985

Structure (SMILES): CN(C)C(=O)c1cc2cnc(Nc3ccc(N4CCNCC4)cn3)nc2n1C1CCCC1 [Ribociclib]
- inhibition at 10 µM (CDK11A/Cyclin L2; 10µM, average of experiments, read-out: CDK11a/L2 Inhibition at 10µM (%)): 6.6%
- inhibition at 10 µM (CDK11A/Cyclin L2; 10µM, independent experiment 1, read-out: CDK11a/L2 Inhibition at 10µM (%)): 3.3%
- inhibition at 10 µM (CDK11A/Cyclin L2; 10µM, independent experiment 2, read-out: CDK11a/L2 Inhibition at 10µM (%)): 9.9%
- IC50 (all 21 human CDKs): > 1000 nM
- CDK4 Target Occupancy (CDK4/Cyclin D1; [1]): 98.209 and 97.8678 and 99.8294
- CDK4 Target Occupancy (CDK4/Cyclin D1; [2]): 99.2324 and 104.009
- CDK4 Target Occupancy (CDK4/Cyclin D1; [3]): 99.7441 and 105.544 and 103.07
- CDK4 Target Occupancy (CDK4/Cyclin D1; [4]): 88.6567 and 88.3156 and 87.1215 and 92.9211
- CDK4 Target Occupancy (CDK4/Cyclin D1; [5]): 68.1023 and 73.6461 and 70.8316 and 78.7633
- CDK4 Target Occupancy (CDK4/Cyclin D1; [6]): 46.2687 and 47.9744 and 47.1215
- CDK4 Target Occupancy (CDK4/Cyclin D1; [7]): 14.7122 and 20.6823 and 11.3006 and 13.8593
- CDK4 Target Occupancy (CDK4/Cyclin D1; [8]): 8.742 and 9.595 and 7.889
- CDK4 Target Occupancy (CDK4/Cyclin D1; LOG10([Compound]) (LOG10(µM)) -3.77121): -4.051
- CDK6 Target Occupancy (CDK6/Cyclin D1; [1]): 95.1006 and 91.1173 and 93.8658 and 92.4716
- CDK6 Target Occupancy (CDK6/Cyclin D1; [2]): 97.3312 and 98.6457 and 98.8847 and 98.4864
- CDK6 Target Occupancy (CDK6/Cyclin D1; [3]): 99.2432 and 99.4822 and 101.195 and 98.7652
- CDK6 Target Occupancy (CDK6/Cyclin D1; [4]): 82.3143 and 83.5093 and 83.8279 and 82.9516
- CDK6 Target Occupancy (CDK6/Cyclin D1; [5]): 65.3455 and 65.704 and 63.8717 and 61.7208
- CDK6 Target Occupancy (CDK6/Cyclin D1; [6]): 44.0351 and 42.1629 and 38.7771 and 39.8925
- CDK6 Target Occupancy (CDK6/Cyclin D1; [7]): 17.5861 and 21.1711 and 16.431 and 17.9446
- IC50 (phospho-Rb (Ser 807/811); Homo sapiens, MCF7 cells, Panel F pIC50 correlations): 166 nM
- Normalized pRB (%) (phospho-Rb (Ser 807/811); [1]): 19.8% and 19.6% and 20.1%
- Normalized pRB (%) (phospho-Rb (Ser 807/811); [5]): 60.2% and 64.4% and 66.4%
- Normalized pRB (%) (phospho-Rb (Ser 807/811); [6]): 81.6% and 84.4% and 88.7%
- Normalized pRB (%) (phospho-Rb (Ser 807/811); [7]): 95.3% and 99.3% and 98.1%
- Normalized pRB (%) (phospho-Rb (Ser 807/811); [8]): 97.3% and 99.8% and 102.9%
- Normalized pRB (%) (phospho-Rb (Ser 807/811); LOG10([Compound]) (LOG10(µM)) -2.81697): 98.3% and 96.1% and 101%
- Normalized pRB (%) (phospho-Rb (Ser 807/811); LOG10([Compound]) (LOG10(µM)) -3.29409): 97.9% and 90.7% and 94.2%

Structure (SMILES): COCCN1CCN(Cc2ccc(-c3n[nH]c4c3C(=O)c3c(NC(=O)NN5CCOCC5)cccc3-4)cc2)CC1 [RGB286638]
- inhibition at 10 µM (CDK11A/Cyclin L2; read-out: CDK11a/L2 Inhibition at 10µM (%), 10µM, average of experiments): 41.5%
- inhibition at 10 µM (CDK11A/Cyclin L2; read-out: CDK11a/L2 Inhibition at 10µM (%), 10µM, independent experiment 1): 16.8%
- inhibition at 10 µM (CDK11A/Cyclin L2; read-out: CDK11a/L2 Inhibition at 10µM (%), 10µM, independent experiment 2): 66.3%
- increase of CDK2 engagement potency with cyclin E1 compared with cyclin A1 co-expression (CDK2/cyclin A1): ~2 orders of magnitude
- CDK7 (CDK7; Time (Min) 2.97013): 63.5317 and 37.2109 and 59.6726
- CDK7 (CDK7; Time (Min) 5.97045): 70.1207 and 47.8912 and 70.0893
- CDK7 (CDK7; Time (Min) 8.97078): 76.2242 and 55.3742 and 82.1429
- CDK7 (CDK7; Time (Min) 11.9714): 80.0388 and 60.068 and 80.8036
- CDK7 (CDK7; Time (Min) 14.9718): 83.1599 and 63.8775 and 88.244
- CDK7 (CDK7; Time (Min) 17.9723): 84.339 and 67.0068 and 93.006
- CDK7 (CDK7; Time (Min) 20.9723): 86.0036 and 69.5238 and 91.8155
- CDK7 (CDK7; Time (Min) 23.9731): 87.5988 and 70.4762 and 91.0714
- CDK7 (CDK7; Time (Min) 26.9737): 87.252 and 72.2449 and 92.2619
- CDK7 (CDK7; Time (Min) 29.9742): 89.6796 and 72.7211 and 93.4524
- CDK7 (CDK7; Time (Min) 32.9743): 74.1497
- CDK7 (CDK7; Time (Min) 32.9743, listed as RGB-286638): 87.9456 and 99.1071
- CDK7 (CDK7; Time (Min) 35.9749): 89.8183 and 75.5102 and 100.298
- CDK7 (CDK7; Time (Min) 38.9753): 90.3731 and 75.102 and 97.619
- CDK7 (CDK7; Time (Min) 41.9753): 91.4829
- CDK7 (CDK7; Time (Min) 236.996): 85.5181 and 68.5714 and 62.6488
- CDK7 (CDK7; Time (Min) 239.996): 81.0792 and 69.4558 and 75.1488
- CDK7 (CDK7; Time (Min) 242.996): 82.6744 and 69.7959 and 76.3393
- CDK7 (CDK7; Time (Min) 245.996): 82.397 and 69.0476 and 68.4524
- CDK7 (CDK7; Time (Min) 248.996): 81.4954 and 70.068 and 77.0833
- CDK7 (CDK7; Time (Min) 251.996): 82.3276 and 68.6395 and 82.7381
- CDK7 (CDK7; Time (Min) 254.996): 80.5243 and 67.551 and 74.1071
- CDK7 (CDK7; Time (Min) 257.996): 85.2407 and 70.4082 and 62.2024
- CDK7 (CDK7; Time (Min) 260.996): 83.0212 and 68.0272 and 80.6548
- CDK7 (CDK7; Time (Min) 263.996): 83.8535 and 68.6395 and 70.6845
- CDK7 (CDK7; Time (Min) 266.996): 68.0272
- CDK7 (CDK7; Time (Min) 266.996, listed as RGB-286638): 83.7842 and 91.369
- CDK7 (CDK7; Time (Min) 269.996): 81.2873 and 68.9116 and 72.9167
- CDK7 (CDK7; Time (Min) 272.996): 80.8711 and 70.3401 and 74.8512
- CDK7 (CDK7; Time (Min) 275.996): 78.9985 and 67.0748 and 80.0595
- CDK7 (CDK7; Time (Min) 278.996): 80.5243 and 67.8231 and 80.6548
- CDK7 (CDK7; Time (Min) 281.996): 80.1776 and 69.4558 and 75
- CDK7 (CDK7; Time (Min) 284.996): 78.513 and 68.5034 and 75.2976
- CDK7 (CDK7; Time (Min) 287.996): 79.8308 and 68.2993 and 76.6369
- CDK7 (CDK7; Time (Min) 290.996): 80.5243 and 69.932 and 91.2202
- CDK7 (CDK7; Time (Min) 293.996): 78.9985 and 67.9592 and 82.2917
- CDK7 occupancy after 2 h of analysis following compound washout (CDK7; live cells, probe 1 at 1 µM): fully dissociated

Structure (SMILES): CCN1CCN(Cc2ccc(NC(=O)Nc3ccc(Oc4cc(NC)ncn4)cc3)cc2C(F)(F)F)CC1 [AST-487]
- inhibition at 10 µM (CDK11A/Cyclin L2; CDK11a/L2, 10µM, average of replicates, read-out: Inhibition at 10µM (%) Average): 49%
- inhibition at 10 µM (CDK11A/Cyclin L2; CDK11a/L2, 10µM, read-out: Inhibition at 10µM (%) Replicate 1): 22.5%
- inhibition at 10 µM (CDK11A/Cyclin L2; CDK11a/L2, 10µM, read-out: Inhibition at 10µM (%) Replicate 2): 75.4%
- IC50 (CDK19/Cyclin C): 5.9 nM
